The target in experiment [1] is T1, human OX2 receptor (Homo sapiens, UniProt O43614).
T1 construct: expressed in transfected cells; host or cells: CHO cells
T1 sequence (O43614 1-444): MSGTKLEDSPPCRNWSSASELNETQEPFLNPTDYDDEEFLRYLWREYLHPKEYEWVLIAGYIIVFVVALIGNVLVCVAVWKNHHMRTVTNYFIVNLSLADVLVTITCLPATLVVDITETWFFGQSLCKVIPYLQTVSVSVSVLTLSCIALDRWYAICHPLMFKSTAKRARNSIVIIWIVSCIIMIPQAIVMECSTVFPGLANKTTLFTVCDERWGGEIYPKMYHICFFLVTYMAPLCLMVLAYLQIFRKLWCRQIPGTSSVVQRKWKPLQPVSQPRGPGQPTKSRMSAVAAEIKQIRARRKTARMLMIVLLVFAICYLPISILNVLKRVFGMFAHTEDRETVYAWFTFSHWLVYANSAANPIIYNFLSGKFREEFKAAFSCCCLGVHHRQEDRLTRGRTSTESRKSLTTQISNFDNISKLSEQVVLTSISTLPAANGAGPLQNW
The experiment in a line: Measurement of orexin receptor antagonistic activity (calcium fluorescence, FLIPRtetra). Format: cell-based. Particulars: CHO, read-out: Human Orexin2 receptor inhibition (at 10 μM). As to the method:
(§1) Measurement of Orexin Receptor Antagonistic Activity
(§2) CHO cells forcibly expressing human OX1 receptor or human OX2 receptor were seeded in each well of 384 well black transparent bottom plate (BD Falcon) at 7,500 cells/well, and cultured for one day in a 5% CO2 incubator at 37° C. […] The plate was stood for 30 min in a 5% CO2 incubator at 37° C., and further stood at room temperature for 30 min. A test compound prepared by diluting with assay buffer B (HBSS, 20 mM HEPES, 0.1% BSA) was added at 10 μL/well, and then OX-A (OX1 receptor, final concentration; 1 nM) or OX-A (OX2 receptor, final concentration; 0.3 nM) was added at 10 μL/well, and the fluorescence value was measured by FLIPRtetra (Molecular Devices) every one sec for 2 min.

The target in experiment [2] is T2, human OX1 receptor (Homo sapiens, UniProt O43613).
T2 construct: expressed in transfected cells; host or cells: CHO cells
T2 sequence (O43613 1-425): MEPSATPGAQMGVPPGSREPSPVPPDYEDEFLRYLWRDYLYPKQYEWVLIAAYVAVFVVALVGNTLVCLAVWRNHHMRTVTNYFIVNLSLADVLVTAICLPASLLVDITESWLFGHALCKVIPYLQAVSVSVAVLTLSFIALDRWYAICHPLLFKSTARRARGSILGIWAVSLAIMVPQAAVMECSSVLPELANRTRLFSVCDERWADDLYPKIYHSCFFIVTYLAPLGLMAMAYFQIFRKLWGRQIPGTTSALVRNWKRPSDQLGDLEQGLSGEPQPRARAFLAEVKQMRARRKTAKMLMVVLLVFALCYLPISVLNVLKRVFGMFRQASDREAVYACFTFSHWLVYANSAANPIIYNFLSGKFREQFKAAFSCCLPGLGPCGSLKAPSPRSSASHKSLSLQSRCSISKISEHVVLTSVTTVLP
The experiment is described as above. Format: cell-based. Particulars: CHO, read-out: Human Orexin1 receptor inhibition (at 10 μM). As to the method:
as §1, §2

Where [3] appears, read: 10 μM test compound, CHO cells expressing human OX2 receptor, OX-A 0.3 nM.
[4] abbreviates: 10 μM test compound, CHO cells expressing human OX1 receptor, OX-A 1 nM.

The inhibition is the change of the read-out against control, counted positive when it falls.

Counter-ions that a name gives are not always drawn. Like-named read-outs stand apart in the source and are kept apart here.

As for `Cc1cc(N2CCN(C(=O)c3c(F)cccc3-n3nccn3)CCO2)nc(C)n1` [Example 16, (2-(2,6-dimethylpyrimidin-4-yl)-1,2,5-oxadiazepan-5-yl) (2-fluoro-6-(2H-1,2,3-triazol-2-yl)phenyl)methanone hydrochloride], the inhibition at 10 µM in experiment [1] (setting [3]) was determined as 98%; in experiment [2] (setting [4]), 21%.
In the case of `Cc1cc(N2C[C@H](C)N(C(=O)c3ccccc3-n3nccn3)[C@H](C)CO2)ncn1` [Example 174, ((4S,6R)-4,6-dimethyl-2-(6-methylpyrimidin-4-yl)-1,2,5-oxadiazepan-5-yl) (2-(2H-1,2,3-triazol-2-yl)phenyl)methanone], the inhibition at 10 µM in experiment [1] (setting [3]) stood at 98%; in experiment [2] (setting [4]) it was 95%.
`Cc1cc(N2CCN(C(=O)c3cc(F)ccc3-n3nccn3)CCO2)nc(C)n1` [Example 14, (2-(2,6-dimethylpyrimidin-4-yl)-1,2,5-oxadiazepan-5-yl)(5-fluoro-2-(2H-1,2,3-triazol-2-yl)phenyl)methanone]: the results for the inhibition at 10 µM in experiment [1] (setting [3]) and in experiment [2] (setting [4]) were 91% and 23%, respectively.
For `Cc1ccc(-n2nccn2)c(C(=O)N2CCN(c3ccnc(C(F)(F)F)c3)OC[C@H]2C)c1` [Example 146, (5-methyl-2-(2H-1,2,3-triazol-2-yl)phenyl) ((6R)-6-methyl-2-(2-(trifluoromethyl)pyridin-4-yl)-1,2,5-oxadiazepan-5-yl)methanone], the figures for the inhibition at 10 µM in experiment [1] and in experiment [2] were 88% and 66%, respectively.
For `Cc1nc(N2CCN(C(=O)c3ccccc3-n3nccn3)C[C@H](C)O2)cc(C(F)(F)F)n1` [Example 92, ((7S)-7-methyl-2-(2-methyl-6-(trifluoromethyl)pyrimidin-4-yl)-1,2,5-oxadiazepan-5-yl)(2-(2H-1,2,3-triazol-2-yl)phenyl)methanone], the inhibition at 10 µM in experiment [1] (setting [3]) came out at 101%; in experiment [2] (setting [4]) it was 73%.
For `Cc1cc(N2CCN(C(=O)c3cc(F)ccc3-n3nccn3)[C@H](C)CO2)nc(C)n1` [Example 162, ((6R)-2-(2,6-dimethylpyrimidin-4-yl)-6-methyl-1,2,5-oxadiazepan-5-yl)(5-fluoro-2-(2H-1,2,3-triazol-2-yl)phenyl)methanone], the values for the inhibition at 10 µM in experiment [1] (setting [3]) and in experiment [2] (setting [4]) were 100% and 42%, respectively.
Turning to `Cc1cc(N2CCN(C(=O)c3ccccc3-n3nccn3)CCO2)nc(C)n1` [Example 20, (2-(2,6-dimethylpyrimidin-4-yl)-1,2,5-oxadiazepan-5-yl) (2-(2H-1,2,3-triazol-2-yl)phenyl)methanone], the inhibition at 10 µM in experiment [1] (setting [3]) was 101%; in experiment [2] (setting [4]), 25%.
On to `Cc1ccc(-n2nccn2)c(C(=O)N2[C@H](C)CON(c3cc(C(F)F)nc(C)n3)C[C@@H]2C)c1` [Example 179, ((4S,6R)-2-(6-(difluoromethyl)-2-methylpyrimidin-4-yl)-4,6-dimethyl-1,2,5-oxadiazepan-5-yl) (5-methyl-2-(2H-1,2,3-triazol-2-yl)phenyl)methanone], for which the inhibition at 10 µM in experiment [1] (setting [3]) was 98%; in experiment [2] (setting [4]) it was 102%.
Turning to `CCc1ccc(-n2nccn2)c(C(=O)N2CCN(c3cc(C)nc(C)n3)O[C@@H](C)C2)c1` [Example 201, ((7S)-2-(2,6-dimethylpyrimidin-4-yl)-7-methyl-1,2,5-oxadiazepan-5-yl)(5-ethyl-2-(2H-1,2,3-triazol-2-yl)phenyl)methanone], the inhibition at 10 µM in experiment [1] (setting [3]) came out at 101%; in experiment [2] (setting [4]), 60%.
For the compound `Cc1cc(N2CCN(C(=O)c3ccccc3-c3nccs3)[C@@H](C)CO2)nc(C)n1` [Example 171, ((6S)-2-(2,6-dimethylpyrimidin-4-yl)-6-methyl-1,2,5-oxadiazepan-5-yl)(2-(1,3-thiazol-2-yl)phenyl)methanone], the inhibition at 10 µM was 102% in experiment [1] (setting [3]) and 37% in experiment [2] (setting [4]).
As for `Cc1cc(N2CCN(C(=O)c3cc(Cl)ccc3-c3ncccn3)CCO2)nc(C)n1` [Example 226, (5-chloro-2-(pyrimidin-2-yl)phenyl)(2-(2,6-dimethylpyrimidin-4-yl)-1,2,5-oxadiazepan-5-yl)methanone], the inhibition at 10 µM in experiment [1] (setting [3]) stood at 101%; in experiment [2] (setting [4]) it was 80%.
On to `COc1cc(N2CCN(C(=O)c3ccccc3-n3nccn3)[C@H](C)CO2)nc(C)n1` [Example 160, ((6R)-2-(6-methoxy-2-methylpyrimidin-4-yl)-6-methyl-1,2,5-oxadiazepan-5-yl)(2-(2H-1,2,3-triazol-2-yl)phenyl)methanone], for which the inhibition at 10 µM in experiment [1] (setting [3]) was determined as 101%; in experiment [2] (setting [4]) it was 82%.
Turning to `Cc1cc(C)nc(N2CCN(C(=O)c3cccc4ncc(C)nc34)CCO2)n1` [Example 68, (2-(4,6-dimethylpyrimidin-2-yl)-1,2,5-oxadiazepan-5-yl) (3-methylquinoxalin-5-yl)methanone], the inhibition at 10 µM in experiment [1] is 87%; in experiment [2], 28%.
Consider `Cc1cc(N2CCN(C(=O)c3ccccc3-c3ncccn3)CCO2)nc(C)n1` [Example 42, (2-(2,6-dimethylpyrimidin-4-yl)-1,2,5-oxadiazepan-5-yl)(2-(pyrimidin-2-yl)phenyl)methanone], for which the figures for the inhibition at 10 µM in experiment [1] (setting [3]) and in experiment [2] (setting [4]) were 101% and 41%, respectively.
The like results for `Cc1cc(C#N)nc(N2CCN(C(=O)c3cc(F)ccc3-n3nccn3)[C@H](C)CO2)n1` [Example 163, 2-((6R)-5-(5-fluoro-2-(2H-1,2,3-triazol-2-yl)benzoyl)-6-methyl-1,2,5-oxadiazepan-2-yl)-6-methylpyrimidine-4-carbonitrile] were, in that order, 102% and 61%.
Turning to `Cc1cc(N2CCN(C(=O)c3cc(Cl)ccc3-n3nccn3)C[C@H](C)O2)nc(C(F)(F)F)n1` [Example 104, (5-chloro-2-(2H-1,2,3-triazol-2-yl)phenyl)((7S)-7-methyl-2-(6-methyl-2-(trifluoromethyl)pyrimidin-4-yl)-1,2,5-oxadiazepan-5-yl)methanone], the inhibition at 10 µM was found to be 96% in experiment [1] (setting [3]) and 104% in experiment [2] (setting [4]).
For `Cc1cc(N2CCN(C(=O)c3ccccc3-c3csc(C)n3)CCO2)nc(C)n1` [Example 19, (2-(2,6-dimethylpyrimidin-4-yl)-1,2,5-oxadiazepan-5-yl) (2-(2-methyl-1,3-thiazol-4-yl)phenyl)methanone], in that order: 100% and 36%.
On to `C[C@H]1CN(C(=O)c2ccccc2-n2nccn2)CCN(c2cc(C(F)(F)F)nc(C3CC3)n2)O1` [Example 97, ((7S)-2-(2-cyclopropyl-6-(trifluoromethyl)pyrimidin-4-yl)-7-methyl-1,2,5-oxadiazepan-5-yl) (2-(2H-1,2,3-triazol-2-yl)phenyl)methanone], for which the inhibition at 10 µM in experiment [1] (setting [3]) is 100%; in experiment [2] (setting [4]), 95%.
As for `COc1ccc(Cl)c(C(=O)N2CCON(c3nc(C)cc(C)n3)CC2)c1` [Example 52, (2-chloro-5-methoxyphenyl) (2-(4,6-dimethylpyrimidin-2-yl)-1,2,5-oxadiazepan-5-yl)methanone], the inhibition at 10 µM in experiment [1] (setting [3]) came out at 96%; in experiment [2] (setting [4]), 16%.
Consider `Cc1cc(C)nc(N2CCN(C(=O)c3ccccc3)CCO2)n1` [Example 46, (2-(4,6-dimethylpyrimidin-2-yl)-1,2,5-oxadiazepan-5-yl) (phenyl)methanone], for which the inhibition at 10 µM in experiment [1] (setting [3]) stood at 36%; in experiment [2] (setting [4]), 4%.
`Cc1ccc(-n2nccn2)c(C(=O)N2CCON(c3cc(C)nc(C)n3)CC2)c1` [Example 4, (2-(2,6-dimethylpyrimidin-4-yl)-1,2,5-oxadiazepan-5-yl)(5-methyl-2-(2H-1,2,3-triazol-2-yl)phenyl)methanone]: the inhibition at 10 µM in experiment [1] (setting [3]) is 96%; in experiment [2] (setting [4]), 62%.
`Cc1cc(N2CCN(C(=O)c3cc(Cl)ccc3-c3ncccn3)[C@H](C)CO2)nc(C)n1` [Example 195, (5-chloro-2-(pyrimidin-2-yl)phenyl)((6R)-2-(2,6-dimethylpyrimidin-4-yl)-6-methyl-1,2,5-oxadiazepan-5-yl)methanone]: the inhibition at 10 µM was determined as 102% in experiment [1] (setting [3]) and 81% in experiment [2] (setting [4]).

Source of the values: US10131653B2, “Heterocyclic compound” (TAKEDA PHARMACEUTICAL COMPANY LIMITED, priority 2015, dated 2018).
